Experimental data from patent US20210122730A1, “GLUCOCORTICOID RECEPTOR MODULATORS” (ORIC Pharmaceuticals, Inc., priority 2017, published 2021).

target: T1, GR (Homo sapiens, UniProt P04150); experiment: In Vitro GR Luciferase Reporter Assay (antagonist mode, CHO-K1-GR-MMTV-Luc reporter cells); type: cell-based; conditions: antagonist assay with 10 nM Dexamethasone, 18-24 hours
T1 construct: expressed in transfected cells; host or cells: CHO-K1
T1 sequence (P04150 1-777): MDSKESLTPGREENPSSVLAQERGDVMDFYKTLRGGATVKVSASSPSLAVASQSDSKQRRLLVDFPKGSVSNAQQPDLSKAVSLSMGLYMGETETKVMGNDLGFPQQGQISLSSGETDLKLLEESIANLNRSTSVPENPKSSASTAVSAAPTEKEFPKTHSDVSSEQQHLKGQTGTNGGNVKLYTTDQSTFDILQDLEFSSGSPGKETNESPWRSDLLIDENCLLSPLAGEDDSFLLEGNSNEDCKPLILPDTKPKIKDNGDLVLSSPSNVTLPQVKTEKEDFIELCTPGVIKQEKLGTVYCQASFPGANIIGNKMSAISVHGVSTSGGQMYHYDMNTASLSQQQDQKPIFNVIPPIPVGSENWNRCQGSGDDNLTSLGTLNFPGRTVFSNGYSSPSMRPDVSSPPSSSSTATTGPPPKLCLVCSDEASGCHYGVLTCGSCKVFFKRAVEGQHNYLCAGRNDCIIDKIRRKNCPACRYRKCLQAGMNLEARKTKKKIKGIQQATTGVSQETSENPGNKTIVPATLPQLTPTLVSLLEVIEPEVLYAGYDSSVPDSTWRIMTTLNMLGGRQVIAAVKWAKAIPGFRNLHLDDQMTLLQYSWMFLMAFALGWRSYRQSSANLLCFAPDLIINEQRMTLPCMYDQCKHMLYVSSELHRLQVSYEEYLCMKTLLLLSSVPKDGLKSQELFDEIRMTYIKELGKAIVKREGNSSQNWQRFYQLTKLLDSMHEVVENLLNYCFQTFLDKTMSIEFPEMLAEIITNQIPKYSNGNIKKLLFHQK
Method in brief: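 CHO-K1-GR-MMTV-Luc cells in phenol red-free DMEM with 10% CSS, stimulated with 10 nM dexamethasone (final) and treated with 8-point 1:5 compound dilutions for about 18-24 h at 37° C. Luciferase measured by OneGlo luminescence; IC50 derived for inhibition of GR activity.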

IC50 [nM]	Structure (SMILES)
≤ 100	CN([C@H]1CCC2=Cc3c(cnn3-c3ccc(F)cc3)C[C@]2(C(=O)c2ccccn2)C1)S(=O)(=O)c1ccc(C(F)(F)F)cc1 [Example 85, N-((4aS,6S)-1-(4-fluorophenyl)-4a-picolinoyl-4,4a,5,6,7,8-hexahydro-1H-benzo[f]indazol-6-yl)-N-methyl-4-(trifluoromethyl)benzenesulfonamide]
≤ 100	Cc1ccnc(C(=O)[C@]23Cc4cnn(-c5ccc(F)cc5)c4C=C2CC[C@H](S(=O)(=O)c2ccccc2)C3)c1 [Example 36, ((4aS,6S)-1-(4-fluorophenyl)-6-(phenylsulfonyl)-1,4,5,6,7,8-hexahydro-4aH-benzo[f]indazol-4a-yl)(4-methylpyridin-2-yl)methanone]
≤ 100	O=C(c1ccc(C2CC2)cn1)[C@]12Cc3cnn(-c4ccc(F)cc4)c3C=C1CC[C@H](S(=O)(=O)C1CCOCC1)C2 [Example 62, (5-cyclopropylpyridin-2-yl)((4aS,6S)-1-(4-fluorophenyl)-6-((tetrahydro-2H-pyran-4-yl)sulfonyl)-1,4,5,6,7,8-hexahydro-4aH-benzo[f]indazol-4a-yl)methanone]
≤ 100	Cc1ccnc(C(=O)[C@]23Cc4cnn(-c5ccc(F)cc5)c4C=C2CC[C@H](S(=O)(=O)c2cccc(Cl)c2)C3)c1 [Example 44, ((4aS,6S)-6-((3-chlorophenyl)sulfonyl)-1-(4-fluorophenyl)-1,4,5,6,7,8-hexahydro-4aH-benzo[f]indazol-4a-yl)(4-methylpyridin-2-yl)methanone]
≤ 100	Cc1ccc(S(=O)(=O)[C@H]2CCC3=Cc4c(cnn4-c4ccc(F)cc4)C[C@]3(C(=O)c3ccccn3)C2)cc1 [Example 1, ((4aS,6S)-1-(4-Fluorophenyl)-6-tosyl-1,4,5,6,7,8-hexahydro-4aH-benzo[f]indazol-4a-yl)(pyridin-2-yl)methanone]

same assay, conditions: antagonist mode, 10 nM Dexamethasone

Structure (SMILES)	IC50 [nM]
O=C(c1ncc(C(F)(F)F)s1)[C@]12Cc3cnn(-c4ccc(F)cc4)c3C=C1CC[C@H](N(CCF)S(=O)(=O)c1ccc(F)cc1)C2 [Example 386, 4-fluoro-N-(2-fluoroethyl)-N-((4aS,6S)-1-(4-fluorophenyl)-4a-(5-(trifluoromethyl)thiazole-2-carbonyl)-4,4a,5,6,7,8-hexahydro-1H-benzo[f]indazol-6-yl)benzenesulfonamide]	≤ 100
CN([C@H]1CCC2=Cc3c(cnn3-c3ccc(F)cc3)C[C@]2(C(=O)c2ncc(C(F)(F)F)s2)C1)S(=O)(=O)c1cnn(C)n1 [Example 151, N-((4aS,6S)-1-(4-fluorophenyl)-4a-(5-(trifluoromethyl)thiazole-2-carbonyl)-4,4a,5,6,7,8-hexahydro-1H-benzo[f]indazol-6-yl)-N,2-dimethyl-2H-1,2,3-triazole-4-sulfonamide]	≤ 100
Cn1cnc(S(=O)(=O)N(CCF)[C@H]2CCC3=Cc4c(cnn4-c4ccc(F)cc4)C[C@]3(C(=O)c3ncc(C(F)(F)F)s3)C2)n1 [Example 382, N-(2-fluoroethyl)-N-((4aS,6S)-1-(4-fluorophenyl)-4a-(5-(trifluoromethyl)thiazole-2-carbonyl)-4,4a,5,6,7,8-hexahydro-1H-benzo[f]indazol-6-yl)-1-methyl-1H-1,2,4-triazole-3-sulfonamide]	≤ 100
CCN([C@H]1CCC2=Cc3c(cnn3-c3ccc(F)cc3)C[C@]2(C(=O)c2ncc(C3CC3)s2)C1)S(=O)(=O)c1ccn(C)n1 [Example 175, N-((4aS,6S)-4a-(5-cyclopropylthiazole-2-carbonyl)-1-(4-fluorophenyl)-4,4a,5,6,7,8-hexahydro-1H-benzo[f]indazol-6-yl)-N-ethyl-1-methyl-1H-pyrazole-3-sulfonamide]	≤ 100
Cn1cc(S(=O)(=O)N(CC(F)(F)F)[C@H]2CCC3=Cc4c(cnn4-c4ccc(F)cc4)C[C@]3(C(=O)c3cc(C(F)(F)F)ccn3)C2)nn1 [Example 318, N-((4aS,6S)-1-(4-fluorophenyl)-4a-(4-(trifluoromethyl)picolinoyl)-4,4a,5,6,7,8-hexahydro-1H-benzo[f]indazol-6-yl)-1-methyl-N-(2,2,2-trifluoroethyl)-1H-1,2,3-triazole-4-sulfonamide]	≤ 100
COCCN([C@H]1CCC2=Cc3c(cnn3-c3ccc(F)cc3)C[C@]2(C(=O)c2ncc(C(F)(F)F)s2)C1)S(=O)(=O)c1ncn(C)n1 [Example 398, N-((4aS,6S)-1-(4-fluorophenyl)-4a-(5-(trifluoromethyl)thiazole-2-carbonyl)-4,4a,5,6,7,8-hexahydro-1H-benzo[f]indazol-6-yl)-N-(2-methoxyethyl)-1-methyl-1H-1,2,4-triazole-3-sulfonamide]	≤ 100
Cn1cc(S(=O)(=O)N(CCF)[C@H]2CCC3=Cc4c(cnn4-c4ccc(F)cc4)C[C@]3(C(=O)c3ncc(C(F)(F)F)s3)C2)cn1 [Example 396, N-(2-fluoroethyl)-N-((4aS,6S)-1-(4-fluorophenyl)-4a-(5-(trifluoromethyl)thiazole-2-carbonyl)-4,4a,5,6,7,8-hexahydro-1H-benzo[f]indazol-6-yl)-1-methyl-1H-pyrazole-4-sulfonamide]	≤ 100
Cn1ncc(S(=O)(=O)N(C2CC2)[C@H]2CCC3=Cc4c(cnn4-c4ccc(F)cc4)C[C@]3(C(=O)c3ncc(C4CC4)s3)C2)n1 [Example 174, N-cyclopropyl-N-((4aS,6S)-4a-(5-cyclopropylthiazole-2-carbonyl)-1-(4-fluorophenyl)-4,4a,5,6,7,8-hexahydro-1H-benzo[f]indazol-6-yl)-2-methyl-2H-1,2,3-triazole-4-sulfonamide]	≤ 100
CN([C@H]1CCC2=Cc3c(cnn3-c3ccc(F)cc3)C[C@]2(C(=O)c2nc(C3CC3)cs2)C1)S(=O)(=O)c1cnn(C)n1 [Example 150, N-((4aS,6S)-4a-(4-cyclopropylthiazole-2-carbonyl)-1-(4-fluorophenyl)-4,4a,5,6,7,8-hexahydro-1H-benzo[f]indazol-6-yl)-N,2-dimethyl-2H-1,2,3-triazole-4-sulfonamide]	≤ 100

Further lines, results first:

IC50 [nM]	Structure (SMILES)
≤ 100	O=C(c1cc(C(F)(F)F)ccn1)[C@]12Cc3cnn(-c4ccc(F)cc4)c3C=C1CC[C@H](S(=O)(=O)c1cnn(CC(F)(F)F)n1)C2 [Example 115, ((4aS,6S)-1-(4-Fluorophenyl)-6-((2-(2,2,2-trifluoroethyl)-2H-1,2,3-triazol-4-yl)sulfonyl)-1,4,5,6,7,8-hexahydro-4aH-benzo[f]indazol-4a-yl)(4-(trifluoromethyl)pyridin-2-yl)methanone]
≤ 100	CN([C@H]1CCC2=Cc3c(cnn3-c3ccc(F)cc3)C[C@]2(C(=O)c2cc(C(F)(F)F)ccn2)C1)S(=O)(=O)c1cnnn1C [Example 169, N-((4aS,6S)-1-(4-fluorophenyl)-4a-(4-(trifluoromethyl)picolinoyl)-4,4a,5,6,7,8-hexahydro-1H-benzo[f]indazol-6-yl)-N,1-dimethyl-1H-1,2,3-triazole-5-sulfonamide]
≤ 100	Cn1ccc(S(=O)(=O)[C@H]2CCC3=Cc4c(cnn4-c4ccc(F)cc4)C[C@]3(C(=O)c3ncc(C(F)(F)F)s3)C2)n1 [Example 264, ((4aS,6S)-1-(4-fluorophenyl)-6-((1-methyl-1H-pyrazol-3-yl)sulfonyl)-1,4,5,6,7,8-hexahydro-4aH-benzo[f]indazol-4a-yl)(5-(trifluoromethyl)thiazol-2-yl)methanone]
≤ 100	CC(C)(O)CN([C@H]1CCC2=Cc3c(cnn3-c3ccc(F)cc3)C[C@]2(C(=O)c2cc(F)ccn2)C1)S(=O)(=O)c1ccc(Cl)nc1 [Example 304, 6-chloro-N-((4aS,6S)-1-(4-fluorophenyl)-4a-(4-fluoropicolinoyl)-4,4a,5,6,7,8-hexahydro-1H-benzo[f]indazol-6-yl)-N-(2-hydroxy-2-methylpropyl)pyridine-3-sulfonamide]
≤ 100	Cn1ccc(S(=O)(=O)N(CC(F)F)[C@H]2CCC3=Cc4c(cnn4-c4ccc(F)cc4)C[C@]3(C(=O)c3cc(Cl)ccn3)C2)n1 [Example 345, N-((4aS,6S)-4a-(4-chloropicolinoyl)-1-(4-fluorophenyl)-4,4a,5,6,7,8-hexahydro-1H-benzo[f]indazol-6-yl)-N-(2,2-difluoroethyl)-1-methyl-1H-pyrazole-3-sulfonamide]
≤ 100	Cn1ccc(S(=O)(=O)N(CCF)[C@H]2CCC3=Cc4c(cnn4-c4ccc(F)cc4)C[C@]3(C(=O)c3cc(C(F)(F)F)ccn3)C2)n1 [Example 380, N-(2-fluoroethyl)-N-((4aS,6S)-1-(4-fluorophenyl)-4a-(4-(trifluoromethyl)picolinoyl)-4,4a,5,6,7,8-hexahydro-1H-benzo[f]indazol-6-yl)-1-methyl-1H-pyrazole-3-sulfonamide]
≤ 100	O=C(c1cc(F)ccn1)[C@]12Cc3cnn(-c4ccc(F)cc4)c3C=C1CC[C@H](N(CCF)S(=O)(=O)c1ccc(F)cc1)C2 [Example 389, 4-fluoro-N-(2-fluoroethyl)-N-((4aS,6S)-1-(4-fluorophenyl)-4a-(4-fluoropicolinoyl)-4,4a,5,6,7,8-hexahydro-1H-benzo[f]indazol-6-yl)benzenesulfonamide]
